This is an account of results in patent US10172858B2, “Combination pharmaceutical compositions and uses thereof” (Intellikine LLC, priority 2011, dated 2019).

Where two headings read alike, the source gives them in different places.

Type in all cases: biochemical
One assay deals with PI3K α (Homo sapiens (Human), UniProt P42336). Nature of the assay: PI3K α kinase assay.
In the next assay the target is PI3K β (Homo sapiens (Human), UniProt P42338). In words: PI3K β kinase assay. Particulars: Table 2.
Another assay concerns the target PI3K δ (Homo sapiens (Human), UniProt O00329). In words: PI3K δ kinase assay.
For a further assay, the target named is mTORC (Homo sapiens (Human), UniProt P42345). In words: mTORC in vitro IC50 (Table 2).
A further assay has as its target PI3K γ (Homo sapiens (Human), UniProt P48736). Nature of the assay: PI3K γ kinase assay. Particulars: Table 2.

Sequence of PI3K β (P42338 whole entry, species assumed): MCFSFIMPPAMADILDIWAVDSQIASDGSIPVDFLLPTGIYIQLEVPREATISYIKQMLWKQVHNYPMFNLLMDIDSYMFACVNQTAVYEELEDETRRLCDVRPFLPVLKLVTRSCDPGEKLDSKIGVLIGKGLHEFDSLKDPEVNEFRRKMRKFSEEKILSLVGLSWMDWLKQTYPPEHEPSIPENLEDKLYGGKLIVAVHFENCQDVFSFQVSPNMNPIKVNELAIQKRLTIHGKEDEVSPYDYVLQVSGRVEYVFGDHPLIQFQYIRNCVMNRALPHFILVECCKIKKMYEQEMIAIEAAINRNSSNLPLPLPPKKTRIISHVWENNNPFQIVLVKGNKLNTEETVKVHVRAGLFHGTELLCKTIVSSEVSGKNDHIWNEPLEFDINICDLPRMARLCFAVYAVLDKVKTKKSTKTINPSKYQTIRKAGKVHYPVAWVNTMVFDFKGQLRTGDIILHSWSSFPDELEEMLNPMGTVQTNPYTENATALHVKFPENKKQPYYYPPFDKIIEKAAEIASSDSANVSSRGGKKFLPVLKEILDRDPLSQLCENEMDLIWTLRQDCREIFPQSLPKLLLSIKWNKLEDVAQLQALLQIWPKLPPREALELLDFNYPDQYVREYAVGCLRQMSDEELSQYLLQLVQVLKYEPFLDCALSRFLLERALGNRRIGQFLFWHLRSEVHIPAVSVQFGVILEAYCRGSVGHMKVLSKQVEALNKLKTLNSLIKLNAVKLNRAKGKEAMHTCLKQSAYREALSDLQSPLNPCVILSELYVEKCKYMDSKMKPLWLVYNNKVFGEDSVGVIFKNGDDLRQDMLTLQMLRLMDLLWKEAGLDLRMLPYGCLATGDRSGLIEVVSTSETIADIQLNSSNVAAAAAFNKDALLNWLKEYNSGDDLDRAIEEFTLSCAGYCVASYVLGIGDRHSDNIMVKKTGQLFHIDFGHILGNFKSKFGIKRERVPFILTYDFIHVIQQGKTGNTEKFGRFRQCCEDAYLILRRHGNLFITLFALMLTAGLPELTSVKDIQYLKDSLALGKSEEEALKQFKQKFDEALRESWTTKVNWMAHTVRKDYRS
Sequence of PI3K β (P27986 whole entry partner, species assumed): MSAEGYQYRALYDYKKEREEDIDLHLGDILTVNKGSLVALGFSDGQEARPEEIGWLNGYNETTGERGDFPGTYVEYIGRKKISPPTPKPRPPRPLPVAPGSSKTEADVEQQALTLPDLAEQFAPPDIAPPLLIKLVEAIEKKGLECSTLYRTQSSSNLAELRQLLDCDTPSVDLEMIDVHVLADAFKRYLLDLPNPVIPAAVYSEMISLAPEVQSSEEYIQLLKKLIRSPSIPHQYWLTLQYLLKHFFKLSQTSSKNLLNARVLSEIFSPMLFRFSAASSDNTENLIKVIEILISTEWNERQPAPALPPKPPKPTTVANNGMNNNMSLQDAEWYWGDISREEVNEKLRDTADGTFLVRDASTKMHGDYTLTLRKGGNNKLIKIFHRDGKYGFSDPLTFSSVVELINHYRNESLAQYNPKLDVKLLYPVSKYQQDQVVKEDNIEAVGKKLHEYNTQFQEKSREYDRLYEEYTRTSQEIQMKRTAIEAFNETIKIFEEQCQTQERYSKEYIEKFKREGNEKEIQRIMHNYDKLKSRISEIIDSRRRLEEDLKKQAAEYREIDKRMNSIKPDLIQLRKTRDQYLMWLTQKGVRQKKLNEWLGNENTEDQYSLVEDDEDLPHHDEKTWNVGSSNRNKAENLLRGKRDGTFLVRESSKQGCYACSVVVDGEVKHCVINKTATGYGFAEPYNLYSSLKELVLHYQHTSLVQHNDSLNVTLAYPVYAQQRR
Sequence of PI3K δ (O00329 whole entry, species assumed): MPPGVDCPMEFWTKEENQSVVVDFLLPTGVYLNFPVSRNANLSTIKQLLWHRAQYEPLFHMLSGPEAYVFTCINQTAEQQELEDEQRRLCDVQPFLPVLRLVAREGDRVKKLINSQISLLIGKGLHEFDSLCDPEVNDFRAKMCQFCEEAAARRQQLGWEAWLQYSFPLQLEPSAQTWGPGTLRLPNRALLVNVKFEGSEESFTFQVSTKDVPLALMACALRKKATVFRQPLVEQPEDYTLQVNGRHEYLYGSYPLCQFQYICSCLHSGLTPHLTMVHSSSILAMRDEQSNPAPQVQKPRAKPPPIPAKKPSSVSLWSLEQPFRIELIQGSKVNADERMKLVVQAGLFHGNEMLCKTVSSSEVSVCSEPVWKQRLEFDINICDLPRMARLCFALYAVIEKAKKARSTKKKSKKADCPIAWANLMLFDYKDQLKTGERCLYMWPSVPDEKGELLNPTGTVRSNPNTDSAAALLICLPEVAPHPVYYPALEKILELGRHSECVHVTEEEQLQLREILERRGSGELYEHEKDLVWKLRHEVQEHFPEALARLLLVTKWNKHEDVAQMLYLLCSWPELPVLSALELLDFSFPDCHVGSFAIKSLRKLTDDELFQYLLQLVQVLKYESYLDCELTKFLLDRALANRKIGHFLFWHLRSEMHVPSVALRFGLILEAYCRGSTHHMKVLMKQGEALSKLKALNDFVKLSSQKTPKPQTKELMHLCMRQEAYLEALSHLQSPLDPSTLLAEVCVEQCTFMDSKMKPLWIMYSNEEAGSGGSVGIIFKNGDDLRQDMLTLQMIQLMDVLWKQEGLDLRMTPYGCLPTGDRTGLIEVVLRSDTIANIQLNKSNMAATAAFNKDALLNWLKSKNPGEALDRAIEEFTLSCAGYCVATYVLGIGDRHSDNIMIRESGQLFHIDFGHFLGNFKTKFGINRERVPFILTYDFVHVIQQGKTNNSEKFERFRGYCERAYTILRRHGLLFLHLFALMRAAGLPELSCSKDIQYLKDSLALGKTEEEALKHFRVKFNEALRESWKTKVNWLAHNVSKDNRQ
Sequence of PI3K δ (P27986 whole entry partner, species assumed): as the sequence (P27986 whole entry partner, species assumed) above
Sequence of PI3K γ (P48736 whole entry, species assumed): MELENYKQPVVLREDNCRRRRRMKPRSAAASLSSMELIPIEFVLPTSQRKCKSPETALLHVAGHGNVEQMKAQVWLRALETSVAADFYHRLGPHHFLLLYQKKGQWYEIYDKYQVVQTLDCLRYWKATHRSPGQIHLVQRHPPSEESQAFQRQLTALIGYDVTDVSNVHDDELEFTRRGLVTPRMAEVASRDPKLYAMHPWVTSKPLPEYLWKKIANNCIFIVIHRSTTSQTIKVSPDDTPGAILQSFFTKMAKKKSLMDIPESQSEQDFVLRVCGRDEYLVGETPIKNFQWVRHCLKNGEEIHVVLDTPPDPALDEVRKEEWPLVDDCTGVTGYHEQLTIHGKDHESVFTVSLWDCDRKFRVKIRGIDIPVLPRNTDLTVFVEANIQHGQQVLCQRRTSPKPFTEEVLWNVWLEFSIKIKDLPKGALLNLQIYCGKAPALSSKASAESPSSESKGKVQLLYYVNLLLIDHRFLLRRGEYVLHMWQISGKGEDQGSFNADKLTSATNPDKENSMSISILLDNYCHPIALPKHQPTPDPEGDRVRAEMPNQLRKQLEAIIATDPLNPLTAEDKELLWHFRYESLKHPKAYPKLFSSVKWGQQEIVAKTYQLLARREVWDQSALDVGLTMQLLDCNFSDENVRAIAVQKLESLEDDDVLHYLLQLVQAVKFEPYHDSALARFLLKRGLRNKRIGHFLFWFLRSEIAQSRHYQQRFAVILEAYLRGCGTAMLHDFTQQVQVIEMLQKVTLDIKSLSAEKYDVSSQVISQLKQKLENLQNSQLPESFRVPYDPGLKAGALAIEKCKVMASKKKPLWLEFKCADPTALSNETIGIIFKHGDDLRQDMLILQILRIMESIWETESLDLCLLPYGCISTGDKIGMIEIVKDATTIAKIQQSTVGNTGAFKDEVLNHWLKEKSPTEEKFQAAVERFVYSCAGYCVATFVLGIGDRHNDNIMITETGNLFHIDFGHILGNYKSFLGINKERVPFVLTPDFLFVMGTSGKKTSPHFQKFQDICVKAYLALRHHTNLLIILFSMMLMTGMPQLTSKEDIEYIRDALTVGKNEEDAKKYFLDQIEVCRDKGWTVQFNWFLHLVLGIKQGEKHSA
Sequence of PI3K α (P42336 whole entry): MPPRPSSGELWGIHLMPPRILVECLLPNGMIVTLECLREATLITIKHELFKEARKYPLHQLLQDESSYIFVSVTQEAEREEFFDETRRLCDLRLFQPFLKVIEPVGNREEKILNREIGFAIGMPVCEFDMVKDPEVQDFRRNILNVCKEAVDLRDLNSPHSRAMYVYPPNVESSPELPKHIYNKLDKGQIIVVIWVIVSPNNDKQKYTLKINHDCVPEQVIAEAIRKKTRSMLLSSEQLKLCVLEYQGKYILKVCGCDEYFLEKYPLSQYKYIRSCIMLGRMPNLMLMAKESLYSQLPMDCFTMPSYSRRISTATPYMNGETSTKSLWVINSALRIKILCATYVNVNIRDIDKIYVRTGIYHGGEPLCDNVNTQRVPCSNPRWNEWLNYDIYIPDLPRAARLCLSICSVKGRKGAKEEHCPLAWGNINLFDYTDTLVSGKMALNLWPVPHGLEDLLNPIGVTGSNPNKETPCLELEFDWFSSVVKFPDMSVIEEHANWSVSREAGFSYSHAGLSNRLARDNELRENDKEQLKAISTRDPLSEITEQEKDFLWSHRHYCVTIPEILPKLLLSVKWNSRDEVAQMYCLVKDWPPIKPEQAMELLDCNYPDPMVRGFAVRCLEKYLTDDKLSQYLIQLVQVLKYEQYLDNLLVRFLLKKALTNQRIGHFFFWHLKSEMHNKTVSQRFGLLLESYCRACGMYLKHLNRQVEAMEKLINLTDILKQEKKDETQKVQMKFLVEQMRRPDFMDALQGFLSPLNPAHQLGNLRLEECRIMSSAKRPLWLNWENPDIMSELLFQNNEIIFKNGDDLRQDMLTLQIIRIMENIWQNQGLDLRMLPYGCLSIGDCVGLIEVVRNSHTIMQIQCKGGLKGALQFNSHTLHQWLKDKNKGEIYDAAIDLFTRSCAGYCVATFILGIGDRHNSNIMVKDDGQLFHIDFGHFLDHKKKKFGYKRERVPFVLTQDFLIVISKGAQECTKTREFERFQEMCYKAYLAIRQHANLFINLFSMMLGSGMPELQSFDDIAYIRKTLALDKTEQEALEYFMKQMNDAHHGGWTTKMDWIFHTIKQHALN
Sequence of PI3K α (P27986 whole entry partner): as the sequence (P27986 whole entry partner, species assumed) above
Description for mTORC: The compounds described herein and any other mTor inhibitors known in the art can be tested against recombinant mTOR (Invitrogen) in an assay containing 50 mM HEPES, pH 7.5, 1 mM EGTA, 10 mM MgCl2, 2.5 mM, 0.01% Tween, 10 μM ATP (2.5 μCi of μ-32P-ATP), and 3 μg/mL BSA. Rat recombinant PHAS-1/4EBP1 (Calbiochem; 2 mg/mL) is used as a substrate. Reactions are terminated by spotting onto nitrocellulose, which is washed with 1M NaCl/1% phosphoric acid (approximately 6 times, 5-10 minutes each). Sheets are dried and the transferred radioactivity quantitated by phosphorimaging.
For instance, one can use Invitrogen's LanthaScreen™ Kinase assay to test the inhibitors of mTOR disclosed herein. This assay is a time resolved FRET platform that measures the phosphorylation of GFP labeled 4EBP1 by mTOR kinase. The kinase reaction is performed in a white 384 well microtitre plate. The total reaction volume is 20 ul per well and the reaction buffer composition is 50 mM HEPES pH7.5, 0.01% Polysorbate 20, 1 mM EGTA, 10 mM MnCl2, and 2 mM DTT. In the first step, each well receives 2 ul of test compound in 20% dimethylsulphoxide resulting in a 2% DMSO final concentration. Next, 8 ul of mTOR diluted in reaction buffer is added per well for a 60 ng/ml final concentration. To start the reaction, 10 ul of an ATP/GFP-4EBP1 mixture (diluted in reaction buffer) is added per well for a final concentration of 10 μM ATP and 0.5 μM GFP-4EBP1. The plate is sealed and incubated for 1 hour at room temperature. […] The plate is sealed, incubated for 1 hour at room temperature, and then read on a plate reader set up for LanthaScreen™ TR-FRET. Data is analyzed and IC50s are generated using GraphPad Prism 5.

`Nc1ncnc2c1c(-c1cc3cc(O)ccc3[nH]1)nn2C1CC(N2CCOCC2)C1` (stereo not shown) [Compound 49]: the IC50 was > 500 nM on PI3K α; > 500 nM against PI3K β; < 500 nM at PI3K δ (Table 2); < 10 nM against mTORC; < 500 nM on PI3K γ.

With `CC(C)n1nc(-c2cc3cccc(Cl)c3[nH]2)c2c(N)ncnc21` [Compound 50], the IC50 at PI3K α (Table 2) is > 500 nM; against PI3K β it was > 500 nM; against PI3K δ (Table 2), < 500 nM; on mTORC, < 50 nM; at PI3K γ, < 500 nM.

Consider `Nc1ncnc2c1c(-c1cc3cccc(Cl)c3[nH]1)nn2C1CCOCC1` [Compound 51], for which the IC50 against PI3K α (Table 2) is > 500 nM; on PI3K β, > 500 nM; against PI3K δ (Table 2) it was < 500 nM; against mTORC, < 50 nM; on PI3K γ, < 500 nM.

With `CN1CCN(C2CC(n3nc(-c4cc5cc(O)ccc5[nH]4)c4c(N)ncnc43)C2)CC1` (stereo not shown) [Compound 52], the IC50 against PI3K α is > 500 nM; against PI3K β, > 500 nM; on PI3K δ (Table 2), < 500 nM; on mTORC it was < 500 nM; at PI3K γ, > 500 nM.

`COc1ccc(Cl)c2cc(-c3nn(C4CCOCC4)c4ncnc(N)c34)[nH]c12` [Compound 61]: the half-maximal inhibitory concentration (IC50) at PI3K α (Table 2) was > 500 nM; at PI3K β, > 500 nM; on PI3K δ (Table 2) it was > 500 nM; against mTORC, < 25 nM; against PI3K γ, > 500 nM.

Turning to `Nc1ncnc2c1c(-c1cc3cccc(O)c3[nH]1)nn2C1CCOCC1` [Compound 62], the IC50 on PI3K α (Table 2) is > 500 nM; at PI3K β, > 500 nM; at PI3K δ (Table 2), < 100 nM; on mTORC, < 5 nM; against PI3K γ, > 500 nM.

On to `COc1cccc2cc(-c3nn(C4CCOCC4)c4ncnc(N)c34)[nH]c12` [Compound 63], for which the IC50 against PI3K α is < 500 nM; on PI3K β it was > 500 nM; on PI3K δ (Table 2) it was < 25 nM; against mTORC it was < 5 nM; against PI3K γ it was < 25 nM.

On to `CC(C)N1CCC(n2nc(-c3cc4cccc(O)c4[nH]3)c3c(N)ncnc32)CC1` [Compound 64], for which the IC50 on PI3K α (Table 2) is > 500 nM; against PI3K β it was > 500 nM; on PI3K δ (Table 2), < 500 nM; against mTORC, < 25 nM; against PI3K γ, < 500 nM.

Turning to `CC(=O)N1CCC(n2nc(-c3cc4ccc(O)cc4[nH]3)c3c(N)ncnc32)CC1` [Compound 65], the IC50 against PI3K α (Table 2) is < 50 nM; against PI3K β it was > 500 nM; against PI3K δ (Table 2), < 25 nM; against mTORC, < 10 nM; on PI3K γ it was < 25 nM.

Turning to `COc1cccc2cc(-c3nn(C4CCN(C(=O)C5CC5)CC4)c4ncnc(N)c34)[nH]c12` [Compound 66], the IC50 against PI3K α (Table 2), against PI3K β, on PI3K δ (Table 2), against mTORC and on PI3K γ was > 500 nM throughout.

`COc1cc(Cl)c2[nH]c(-c3nn(C4CCOCC4)c4ncnc(N)c34)cc2c1` [Compound 67]: the IC50 against PI3K α (Table 2), against PI3K β, against PI3K δ (Table 2), on mTORC and against PI3K γ was > 500 nM each time.

For `Nc1ncnc2c1c(-c1cc3cc(O)cc(Cl)c3[nH]1)nn2C1CCOCC1` [Compound 68], the IC50 at PI3K α (Table 2) is < 500 nM; against PI3K β, > 500 nM; at PI3K δ (Table 2) it was < 25 nM; against mTORC, < 5 nM; on PI3K γ it was < 50 nM.

As for `CC(=O)N1CCC(n2nc(-c3cc4c(Cl)ccc(O)c4[nH]3)c3c(N)ncnc32)CC1` [Compound 69], the IC50 at PI3K α (Table 2) was > 500 nM; on PI3K β it was > 500 nM; against PI3K δ it was < 500 nM; against mTORC, < 5 nM; against PI3K γ, > 500 nM.

For `CC(=O)N1CCC(n2nc(-c3cc4cc(O)cc(Cl)c4[nH]3)c3c(N)ncnc32)CC1` [Compound 70], the IC50 on PI3K α (Table 2) is < 500 nM; at PI3K β it was > 500 nM; on PI3K δ (Table 2), < 25 nM; on mTORC, < 5 nM; against PI3K γ, < 100 nM.

A word on the IC50: it is the concentration that gives 50% inhibition. A low value points to greater potency in that assay.
